Test results reported in patent publication US8017611B2, “Pyridine and pyrazine derivatives -083” (AstraZeneca AB, priority 2007, dated 2011).

target: T1, recombinant Axl tyrosine kinase (Homo sapiens, UniProt P30530); test: In vitro Axl kinase assay (AlphaScreen), Test (a); type: biochemical; conditions: test compound at 1 μM; first value quoted
T1 construct: encompassing amino acids 473 to 894 of Axl; GST (N); made in house; host or cells: SF126 insect cells
T1 sequence (P30530 473-894): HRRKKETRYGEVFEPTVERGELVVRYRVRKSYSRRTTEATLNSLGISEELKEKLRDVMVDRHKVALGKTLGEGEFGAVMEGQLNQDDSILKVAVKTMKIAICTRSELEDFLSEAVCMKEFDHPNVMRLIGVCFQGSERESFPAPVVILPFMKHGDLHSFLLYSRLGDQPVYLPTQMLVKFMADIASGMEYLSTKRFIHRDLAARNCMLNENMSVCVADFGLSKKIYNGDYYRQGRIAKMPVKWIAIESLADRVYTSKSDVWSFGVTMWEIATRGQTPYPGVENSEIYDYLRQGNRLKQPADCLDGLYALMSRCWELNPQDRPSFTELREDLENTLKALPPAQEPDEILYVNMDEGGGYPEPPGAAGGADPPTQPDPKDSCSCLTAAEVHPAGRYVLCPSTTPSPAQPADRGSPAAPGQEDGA
Protocol: Test compounds were prepared as 10 mM stock solutions in dimethylsulphoxide (DMSO) and diluted in DMSO as required. Aliquots (120 nl) of compound dilutions were filled into the wells of a Greiner 384-well low volume (LV) white polystyrene plate (Greiner Bio-one) using acoustic dispensing (Labcyte Echo 550). A 10 μl mixture of recombinant purified Axl enzyme, biotinylated peptide substrate (Biotin poly-GAT; CisBio, Catalogue No. 61GATBLB), 0.2 μM adenosine triphosphate (ATP) and a buffer solution [comprising 20 mM Tris-HCl pH 7.5 buffer, 0.01% v/v Tween, 5 mM dithiothreitol (DTT) and 10 mM manganese chloride] was incubated with the compounds at room temperature for 20 minutes.
Control wells that produced a minimum signal corresponding to 100% inhibited enzyme were created by adding 10 μM of Staurosporine.
The percentage kinase inhibition value is the percentage of Axl tyrosine kinase activity inhibited by the test compound at a concentration of 1 μM.

Row | SMILES | % Axl tyrosine kinase inhibition at 1 μM concentration [%]
1 | Nc1ncc(-c2ccc(C(=O)NC3CCNC3)cc2)cc1-c1nc2cccnc2o1 (centres unmarked) [Example 45A.106] | 98.4
2 | CN1CCN(S(=O)(=O)CCCOc2ccc(-c3cnc(N)c(-c4nc5ncccc5o4)c3)cc2)CC1 [Example 43B.24] | 98.2
3 | COc1cc(-c2cnc(N)c(-c3nc4ncccc4o3)c2)ccc1OCCN [Example 43C.21] | 99.3
4 | CC(C)(C)OC(=O)NCc1cccc(-c2cnc(N)c(-c3nc4ccncc4o3)c2)c1 [Example 11A.9] | 99.3
5 | Nc1ncc(-c2ccc(C(=O)NCCO)cc2)cc1-c1nc2cccnc2o1 [Example 9A.2] | 97.0
6 | Nc1ncc(-c2ccc(C(=O)N3CCN(Cc4ccccn4)CC3)cc2)cc1-c1nc2cccnc2o1 [Example 45A.60] | 98.1
7 | Nc1ncc(-c2ccc3[nH]ccc3c2)cc1-c1nc2ccccc2o1 [Example 2.29] | 31.3
8 | CNC(=O)c1cccc2nc(-c3cc(-c4cnn(C5CCN(C)CC5)c4)cnc3N)oc12 [Example 41.36] | 100.0
9 | CNC(=O)c1cccc(-c2cnc(N)c(-c3nc4ccccc4o3)c2)c1 [Example 2.17] | 68.9
10 | Nc1ncc(-c2cnc3ccccc3c2)cc1-c1nc2ccccc2o1 [Example 2.24] | 88.9
11 | CN1CCC(NC(=O)c2ccc(-c3cnc(N)c(-c4nc5cccnc5o4)c3)cc2)CC1 [Example 45A.69] | 96.7
12 | Nc1ncc(-c2ccc(OC3CCCNC3)cc2)cc1-c1nc2ncccc2o1 (centres unmarked) [Example 43B.30] | 98.9
13 | Nc1ncc(-c2ccc(S(=O)(=O)NCCO)cc2)cc1-c1nc2cccnc2o1 [Example 9A.14] | 97.0
14 | Nc1ncc(-c2cccc(N3CCCC3)c2)nc1-c1nc2ccccc2o1 [Example 20.5] | 85.6
15 | Nc1ncc(-c2ccc(C(=O)NCCN3CC[C@H](F)C3)cc2)cc1-c1nc2cccnc2o1 [Example 45A.38] | 98.4
16 | CC(C)N1CCC(n2cc(-c3cnc(N)c(-c4nc5ncccc5o4)c3)cn2)CC1 [Example 53.4] | 99.2
17 | CN1CCN(CCCn2cc(-c3cnc(N)c(-c4nc5ccccc5o4)c3)cn2)CC1 [Example 31.5] | 100.0
18 | CN(C)CCOc1ccc(-c2cnc(N)c(-c3nc4ncccc4o3)c2)cc1 [Example 43B.2] | 96.9
19 | Nc1ncc(-c2ccc(C(=O)N3CC(N)C3)cc2)cc1-c1nc2cccnc2o1 [Example 45A.105] | 98.4
20 | CN1CCC(n2cc(-c3cnc(N)c(-c4nc5cc(Br)ccc5o4)c3)cn2)CC1 [Example 7.5] | 99.1
21 | Nc1ncc(-c2ccc(C(=O)N3CCC[C@H]3CN3CCCC3)cc2)cc1-c1nc2cccnc2o1 [Example 45A.66] | 99.9
22 | CN(CCN1CCCC1)C(=O)c1ccc(-c2cnc(N)c(-c3nc4cccnc4o3)c2)cc1 [Example 45A.70] | 98.8

Row | SMILES | % Axl tyrosine kinase inhibition at 1 μM concentration [%]
23 | Cc1c(-c2cnc(N)c(-c3nc4ccccc4o3)c2)cnn1C1CCN(C)CC1 [Example 41.18] | 100.0
24 | CC(C)N1CCC(CN(C)C(=O)c2ccc(-c3cnc(N)c(-c4nc5cccnc5o4)c3)cc2)C1 (centres unmarked) [Example 45A.42] | 99.3
25 | Nc1ncc(-c2cccc(N3CCCC3)c2)cc1-c1nc2ccccc2o1 [Example 2.32] | 22.4
26 | CNC(=O)CN1CCC(n2cc(-c3cnc(N)c(-c4nc5ncccc5o4)c3)cn2)CC1 [Example 53.2] | 97.8
27 | CCN(CC)CCOc1ccc(-c2cnc(N)c(-c3nc4ncccc4o3)c2)cc1OC [Example 43C.4] | 99.8
28 | CN(C(=O)c1ccc(-c2cnc(N)c(-c3nc4cccnc4o3)c2)cc1)C1CCNCC1 [Example 45A.96] | 99.1
29 | NCCCOc1ccc(-c2cnc(N)c(-c3nc4ncccc4o3)c2)cc1 [Example 43B.31] | 97.1
30 | CS(=O)(=O)c1cccc(-c2cnc(N)c(-c3nc4ccccc4o3)c2)c1 [Example 2.48] | 97.1
31 | CN(C)C(=O)CN1CCN(C(=O)c2ccc(-c3cnc(N)c(-c4nc5cccnc5o4)c3)cc2)CC1 [Example 45A.67] | 96.8
32 | Nc1ncc(-c2ccc(C(=O)NCCN3CCS(=O)(=O)CC3)cc2)cc1-c1nc2cccnc2o1 [Example 45A.12] | 96.3
33 | CN1CCN(c2ccc(-c3cnc(N)c(-c4nc5ncccc5o4)c3)cc2)CC1 [Example 25.7] | 99.1
34 | CCN(CC)C1CCN(C(=O)c2ccc(-c3cnc(N)c(-c4nc5cccnc5o4)c3)cc2)C1 (centres unmarked) [Example 45A.33] | 97.7
35 | C[C@H](O)C(=O)N1CCC(n2cc(-c3cnc(N)c(-c4nc5cccnc5o4)c3)cn2)CC1 [Example 57.7] | 99.6
36 | CN(C)CCC(=O)N1CCC(n2cc(-c3cnc(N)c(-c4nc5cccnc5o4)c3)cn2)CC1 [Example 59.13] | 99.7
37 | CN1CCC(n2cc(-c3cnc(N)c(-c4nc5ccccc5o4)c3)c(C(=O)N(C)C)n2)CC1 [Example 41.30] | 99.5
38 | Nc1ncc(-c2cnn(C3CCNC3)c2)cc1-c1nc2ccccc2o1 (centres unmarked) [Example 29.3] | 99.9
39 | CS(=O)(=O)N1CCN(CCCOc2ccc(-c3cnc(N)c(-c4nc5ncccc5o4)c3)cc2)CC1 [Example 43B.15] | 86.0
40 | CN1CC(Cn2cc(-c3cnc(N)c(-c4nc5ccccc5o4)c3)cn2)C1 [Example 41.11] | 74.7
41 | Nc1ncc(-c2ccc(C(=O)N3CCC4(CCNC4)CC3)cc2)cc1-c1nc2cccnc2o1 [Example 45A.89] | 91.7
42 | COc1cccc2nc(-c3cc(-c4cn(C5CCNCC5)nc4C)cnc3N)oc12 [Example 62.15] | 100.0
43 | Nc1ncc(-c2cnn(C3CCN(CCO)CC3)c2)cc1-c1nc2ncccc2o1 [Example 53.5] | 100.0
44 | Nc1ncc(-c2cccc(N3CCCCC3)c2)cc1-c1nc2ccncc2o1 [Example 11A.6] | 90.0

same assay, conditions: test compound at 1 μM; first value quoted; read-out: % Axl tyrosine kinase inhibition at 1 μM concentration

Row | SMILES | inhibition at 1 µM [%]
45 | CN1CCC(n2cc(-c3cnc(N)c(-c4nc5cccc(CO)c5o4)c3)cn2)CC1 [Example 65, [2-[2-amino-5-[1-(1-methyl-4-piperidyl)pyrazol-4-yl]-3-pyridyl]-1,3-benzoxazol-7-yl]methanol] | 100
46 | Nc1ncc(-c2cnn(C3CCNCC3)c2)cc1-c1nc2ccncc2o1 [Example 11, 3-Oxazolo[5,4-c]pyridin-2-yl-5-[1-(4-piperidyl)pyrazol-4-yl]pyridin-2-amine] | 99
47 | Cc1nn(C2CCN(C(=O)OC(C)(C)C)CC2)cc1-c1cnc(N)c(-c2nc3ccccc3o2)c1 [Example 21, Tert-butyl 4-[4-[6-amino-5-(1,3-benzoxazol-2-yl)-3-pyridyl]-3-methyl-pyrazol-1-yl]piperidine-1-carboxylate] | 9.7
48 | COc1cc(-c2cnc(N)c(-c3nc4cccnc4o3)c2)ccc1OCCN1CCCC1 [Example 43C.1, 5-[3-methoxy-4-(2-pyrrolidin-1-ylethoxy)phenyl]-3-oxazolo[5,4-b]pyridin-2-yl-pyridin-2-amine] | 99.4
49 | Nc1ncc(-c2cnn(C3CCNCC3)c2)cc1-c1nc2cccnc2o1 [Example 9, 3-Oxazolo[5,4-b]pyridin-2-yl-5-[1-(4-piperidyl)pyrazol-4-yl]pyridin-2-amine] | 98.8
50 | Nc1ncc(-c2cnn(C3CCNCC3)c2)cc1-c1nc2ncccc2o1 [Example 10, 3-Oxazolo[4,5-b]pyridin-2-yl-5-[1-(4-piperidyl)pyrazol-4-yl]pyridin-2-amine] | 98.8
51 | Nc1ncc(-c2cnn(C3CCNCC3)c2)cc1-c1nc2ccccc2o1 [Example 2.3, 3-(1,3-Benzoxazol-2-yl)-5-[1-(4-piperidyl)pyrazol-4-yl]pyridin-2-amine] | 98.6
52 | CNC(=O)c1cccc2nc(-c3cc(-c4cnn(C5CCNCC5)c4)cnc3N)oc12 [Example 70, 2-[2-amino-5-[1-(4-piperidyl)pyrazol-4-yl]-3-pyridyl]-N-methyl-1,3-benzoxazole-7-carboxamide] | 99.9

same assay, conditions: test compound at 30 μM; read-out: % of Axl tyrosine kinase activity inhibited at a concentration of 30 μM

Row | SMILES | inhibition at 30 µM [%]
53 | Cc1nn(C2CCN(C(=O)OC(C)(C)C)CC2)cc1-c1cnc(N)c(-c2nc3ccccc3o2)c1 [Example 21, Tert-butyl 4-[4-[6-amino-5-(1,3-benzoxazol-2-yl)-3-pyridyl]-3-methyl-pyrazol-1-yl]piperidine-1-carboxylate] | 76.4
